Experimental data from patent US4022791A (priority 1975, dated 1977).

What was measured:
Rats [1] = system: Rats; set-up: Rat Jump .5 hr (current at which the animal first jumps) / Rat Jump .5 hr, second value printed in parentheses / Rat Jump 2 hr (current at which the animal first jumps): unit not given here; conditions: in vivo, ip
mice [2] = conditions: mouse, in vivo, ip
mice [3] = conditions: mouse, in vivo, ip; remark: listed apart in the source
mice [4] = test: animal or person; assay type: in vivo, mouse; conditions: ip
[5] = Toxicity and adverse effects noted (comments), species not stated; assay type: in vivo; conditions: at 100 mg./kg.
From the text: (§1) The tabulated test results include comments regarding toxicity and adverse effects noted with certain compounds.

[6] = Analgesic and tranquilizing effectiveness, summary of Examples 10 and 11; assay type: in vivo
Rats [7] = conditions: rat, in vivo, ip
Rats [8] = test: Toxicity and adverse effects noted (comments), rats; assay type: in vivo, rat; conditions: for loss of righting reflex (rats): at 100 mg./kg.
From the text: as §1

mice [9] = test: Toxicity and adverse effects noted (comments), mice; assay type: in vivo, mouse; conditions: at 32 mg./kg.
From the text: as §1

Molecule	Rat Jump .5 hr (current at which the animal first jumps) (Rats [1])	Hot Plate 2 hr (percentage of mice showing analgesia) (mice [2])	Hot Plate .5 hr (percentage of mice showing analgesia) (mice [2])	Tail Flick 2 hr (percentage of analgesia response) (mice [3])	Tail Flick .5 hr (percentage of analgesia response) (mice [3])	ED50 (mice [4]; Mus musculus, read-out: Tail Pinch ED50) [mg/kg]	toxicity [5]	analgesic and tranquilizing effectiveness [6]	Tail Pinch ED50 (mice [4]; mouse, in vivo) [mg/kg]	Amphetamine Antagonism Activity (dosage approximately neutralizing the amphetamine effect) (Rats [7]) [mg/kg]	Rat Jump 2 hr (current at which the animal first jumps) (Rats [1])	Tail Pinch 2 hr (percentage of mice showing analgesia) (mice [4]; mouse, in vivo)	Tail Pinch .5 hr (percentage of mice showing analgesia) (mice [4]; mouse, in vivo)	loss of righting reflex (rats) (Rats [8])	rats died (Rats [8]; at 32 mg./kg.)	mice died (mice [9])
CCC(=O)O[C@](Cc1ccccc1)(c1ccccc1)[C@H](C)CN(C)C [d-Propoxyphene, reference compound]	1.2	0	60	20	40	11.5	toxic	–	–	–	–	–	–	–	–	–
COc1ccc(Cl)c2c1CCC(CN1CCC(OC(C)=O)(c3ccccc3)CC1)=C2 [1-(2-[8-Chloro-5-methoxy-3,4-dihydronaphthyl]methyl)-4-acetoxy-4-phenylpiperidine]	–	–	–	–	–	–	–	outstanding effectiveness	–	–	–	–	–	–	–	–
Codeine Sulfate [reference compound]	> 2.2	60	80	50	100	–	–	–	15.4	> 32	–	–	–	–	–	–
COc1ccc(Cl)c2c1CCC(CN1CCC(NC(=O)N3CCCCC3)CC1)=C2	1.2	0	0	0	0	–	–	–	–	–	1.2	0	0	1/5	–	–
COc1ccc(Cl)c2c1CCC(CN1CCC(C(=O)N3CCCCC3)CC1)=C2	1.6	0	20	0	40	–	–	–	–	–	1.2	0	0	2/5	–	–
COc1ccc(Cl)c2c1CCC(CNCC1CC1)=C2	1.2	10	40	0	20	–	–	–	–	–	1.2	0	40	–	1/5	–
COc1ccc(Cl)c2c1CCC(CN1CCC(C(=O)N3CCCC3)CC1)=C2	1.2	0	25	0	25	–	–	–	–	–	1.2	0	0	–	–	1/5
COc1ccc(Cl)c2c1CCC(CN1CCN(CCO)CC1)=C2	1.2	20	50	0	10	–	–	–	–	–	1.2	0	40	–	–	–
CCOC(=O)N1CCN(CC2=Cc3c(Cl)ccc(OC)c3CC2)CC1	1.2	40	70	0	40	–	–	–	–	–	1.2	0	0	–	–	–
